Test results as given in patent US4458077A, “Heterocyclic anti-ulcer agents” (American Home Products Corporation, priority 1982, dated 1984).
Like-named read-outs stand apart in the source and are kept apart here. Each block holds one compound with its values, some of them ahead of it.

Experiments:
[1] = target: H2 histamine receptors (Cavia porcellus, UniProt P47747); experiment: guinea pig heart atrium test: inhibition of histamine-induced positive chronotropic response (H2 antagonist activity)
Sequence of H2 histamine receptors (P47747 whole entry): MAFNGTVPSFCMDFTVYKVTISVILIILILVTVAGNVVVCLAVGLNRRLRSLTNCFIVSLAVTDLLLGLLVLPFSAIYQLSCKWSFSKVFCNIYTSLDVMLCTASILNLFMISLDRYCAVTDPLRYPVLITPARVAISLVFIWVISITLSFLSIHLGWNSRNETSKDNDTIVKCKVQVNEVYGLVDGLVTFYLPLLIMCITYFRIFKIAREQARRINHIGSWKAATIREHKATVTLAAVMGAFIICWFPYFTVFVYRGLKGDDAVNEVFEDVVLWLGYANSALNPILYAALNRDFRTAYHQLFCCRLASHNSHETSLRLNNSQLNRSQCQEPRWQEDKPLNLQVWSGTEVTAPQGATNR
Description: (§1) The results for some of the compounds of the invention in these procedures is presented at the end of the following examples, which will serve to illustrate the present invention.
The guniea pig heart atrium test is carried out as follows:
A guinea pig right atrium is suspended at 1 g. tension (isometric) in a thermostatically controlled (32° C.) tissue bath (10 ml) containing oxygenated (95% O2; 5% CO2) Krebs-Haenseleit buffer (pH 7.4). The tissue is allowed to stabilize over 1 hour. Individual contractions are recorded with a force-displacement transducer through a strain gauge coupler. A control dose-response curve to histamine in the above described tissue bath is obtained after which the tissue is washed 3 times and allowed to re-equilibrate to basal rate. The test compound is added to the tissue bath at the desired final concentration. Thirty minutes after addition of the compound, a fresh histamine dose response curve is again obtained. Then the response to histamine in the presence of antagonist is compared to the histamine control response. This procedure is repeated, using fresh tissues, for each concentration of antagonist tested. The result is expressed as the apparent dissociation constant (pA2) of the H2 antagonist as determined by standard procedures. Cimetidine is used as the standard for this test.

[2] = test system: gastric acid secretion; experiment: gastric secretion in the pylorus-ligated rat (modified Shay procedure); format: in vivo; settings: 32 mg/kg, interduodenally (i.d.), pylorus-ligated male Charles River rats, 4 hours after ligation
Description: as §1
The procedure for testing gastric secretion in the rat, a modification of the procedure of Shay et al., Gastroenterology, 26, 906-13 (1954) is carried out as follows:
Male Charles River rats weighing 200-300 grams are deprived of food but not water for 24 hours prior to use. Water is, however, withheld during the experiment. The rats are weighed, anesthetized, and the pylorus ligated according to the method of Shay et al. Treatment or vehicle control is then administered interduodenally (i.d.). Rats are housed 2/cage and sacrificed with CO2 four hours after ligation. The stomachs are removed, rinsed, and contents emptied into a graduated centrifuge tube. The tubes are centrifuged for 20 minutes at 2,000 RPM and the volume of gastric juice recorded. Any samples obviously contamined by feces, food or hemolysis are eliminated. An aliquot of each is frozen for later analysis of Na^+, K^+ and Cl^- concentration. The pH is measured and 1 ml. of gastric juice is titrated with 0.1N NaOH to a pH of 7.0-7.4. Titrable acid output is calculated in microequivalents and the percent inhibition of acid output is calculated as follows: [formula]

[3] = background, cited from earlier work
[4] = apparent dissociation constant (pA2) vs histamine, guinea pig right atrium, 32° C, pH 7.4, 30 min after compound, three experiments, read-out: pA2 Value (converted)

Kb [1, 4]: 9120 nM
SMILES: CNC(=C[N+](=O)[O-])NOCCOCc1ccc(CN(C)C)o1 [Example 2, N-[2-[[5-[(dimethylamino)methyl]-2-furanyl]methoxy]ethoxy]-N'-methyl-2-nitro-1,1-ethenediamine, ethanedioate]

Kb [1, 4]: 1260 nM
SMILES: CNC(=S)NOCCOCc1ccc(CN(C)C)o1 [Example 4, N-[2-[[5-[(dimethylamino)methyl]-2-furanyl]methoxy]ethoxy]-N'-methyl-thiourea, 1/2 hydrate]

Kb ([1]; printed in pA2 column, footnote *: KB value, result of only one experiment, guinea pig right atrium vs histamine, read-out: KB value): 108 nM
SMILES: CNC(=C[N+](=O)[O-])NOCCCc1csc(NC(=N)N)n1 [Example 5, [4-[3-[[[1-(methylamino)-2-nitroethenyl]amino]oxy]propyl]-2-thiazolyl]guanidine]
% Inhibition (of acid output) [2]: 72%

SMILES: CN/C(=N/CCSCc1nc[nH]c1C)NC#N [cimetidine]
confusional states (limitation) ([3]; elderly patients): a tendency to cause confusional states in elderly patients
anti-androgenic activity (limitation) ([3]; patients): anti-androgenic activity
